From ChEMBL document CHEMBL3885861, “Open TG-GATES”

Species: Rattus norvegicus
Assay: Open TG-GATES - Regimen: Daily Repeat
Format: toxicity, organism-based, Sprague-Dawley
Set-up: regimen Daily Repeat, gender Male, age 6 weeks
Settings: in vivo, po, route gavage; for APTT / Bas / Eos / Fbg / Hb / Ht / Lym / MCH / MCHC / MCV / Mono / Neu / PT / Plat / RBC / Ret / WBC: tissue Blood; for KIDNEY_L / KIDNEY_R / KIDNEY_TOTAL: tissue Kidney; for LIVER: tissue Liver; for A/G / ALP / ALT / AST / BUN / CRE / Ca / Cl / DBIL / GLC / IP / K / LDH / Na / PL / RALB / TBIL / TC / TG / TP / gamma-GTP: tissue Plasma
[1] = 0 mg/kg, 72 h, dose level Control, time 3 day
[2] = 0 mg/kg, […], dose level Control, time 7 day
[3] = 0 mg/kg, […], dose level Control, time 14 day
[4] = 0 mg/kg, […], dose level Control, time 28 day
[5] = 3 mg/kg, 72 h, dose level Low, time 3 day
[6] = 3 mg/kg, […], dose level Low, time 7 day
[7] = 3 mg/kg, […], dose level Low, time 14 day
[8] = 3 mg/kg, […], dose level Low, time 28 day

## Cn1cnc([N+](=O)[O-])c1Sc1ncnc2nc[nH]c12 [AZATHIOPRINE]
[1]
  TERMINAL_BW: 200.7 g
  APTT: 21.5 s
  Bas: 0%
  Eos: 0.8%
  Fbg: 305.2 mg/dL
  Hb: 13.5 g/dL
  Ht: 39.8%
  Lym: 80.4%
  MCH: 21.4 pg
  MCHC: 33.8%
  MCV: 63.1 fL
  Mono: 2.2%
  Neu: 15.4%
  PT: 16.3 s
  Plat: 129.4 x10_4/uL
  RBC: 630.8 x10_4/ul
  Ret: 8%
  WBC: 91.1 x10_2/uL
  KIDNEY_L: 0.9 g
  KIDNEY_R: 0.9 g
  KIDNEY_TOTAL: 1.8 g
  LIVER: 9.6 g
  A/G: 1.2
  ALP: 1684.4 IU/L
  ALT: 44.2 IU/L
  AST: 69.2 IU/L
  BUN: 16.6 mg/dL
  CRE: 0.1 mg/dL
  Ca: 11.2 mg/dL
  Cl: 105.8 meq/L
  DBIL: 0 mg/dL
  GLC: 194.4 mg/dL
  IP: 7.2 mg/dL
  K: 3.9 meq/L
  LDH: 220.4 IU/L
  Na: 144 meq/L
  PL: 157.8 mg/dL
  RALB: 3 g/dL
  TBIL: 0.006 mg/dL
  TC: 79.8 mg/dL
  TG: 115.6 mg/dL
  TP: 5.5 g/dL
  gamma-GTP: 1 IU/L
[2]
  TERMINAL_BW: 246.2 g
  APTT: 21.9 s
  Bas: 0%
  Eos: 0.8%
  Fbg: 327.8 mg/dL
  Hb: 13.8 g/dL
  Ht: 39.8%
  Lym: 77.4%
  MCH: 21.9 pg
  MCHC: 34.7%
  MCV: 63 fL
  Mono: 2.4%
  Neu: 18.2%
  PT: 15.8 s
  Plat: 123.7 x10_4/uL
  RBC: 631.4 x10_4/ul
  Ret: 6.8%
  WBC: 129.6 x10_2/uL
  KIDNEY_L: 1 g
  KIDNEY_R: 1.1 g
  KIDNEY_TOTAL: 2.1 g
  LIVER: 11.4 g
  A/G: 1.2
  ALP: 1579.8 IU/L
  ALT: 42.4 IU/L
  AST: 72 IU/L
  BUN: 20.2 mg/dL
  CRE: 0.2 mg/dL
  Ca: 10.8 mg/dL
  Cl: 107.2 meq/L
  DBIL: 0 mg/dL
  GLC: 201.4 mg/dL
  IP: 6.6 mg/dL
  K: 4.3 meq/L
  LDH: 194.8 IU/L
  Na: 143.2 meq/L
  PL: 156.6 mg/dL
  RALB: 3 g/dL
  TBIL: 0.004 mg/dL
  TC: 80 mg/dL
  TG: 118.4 mg/dL
  TP: 5.5 g/dL
  gamma-GTP: 1.2 IU/L
[3]
  TERMINAL_BW: 269.5 g
  APTT: 22.4 s
  Bas: 0%
  Eos: 0.8%
  Fbg: 309 mg/dL
  Hb: 14.9 g/dL
  Ht: 41.2%
  Lym: 87%
  MCH: 21.4 pg
  MCHC: 36.1%
  MCV: 59.4 fL
  Mono: 1.4%
  Neu: 10%
  PT: 16.9 s
  Plat: 103.8 x10_4/uL
  RBC: 694.4 x10_4/ul
  Ret: 4%
  WBC: 113.3 x10_2/uL
  KIDNEY_L: 1.1 g
  KIDNEY_R: 1.1 g
  KIDNEY_TOTAL: 2.2 g
  LIVER: 11.7 g
  A/G: 1.1
  ALP: 1520.8 IU/L
  ALT: 35.6 IU/L
  AST: 66.8 IU/L
  BUN: 17.8 mg/dL
  CRE: 0.2 mg/dL
  Ca: 10.4 mg/dL
  Cl: 107 meq/L
  DBIL: 0 mg/dL
  GLC: 178.2 mg/dL
  IP: 6.5 mg/dL
  K: 4.3 meq/L
  LDH: 153.2 IU/L
  Na: 143.6 meq/L
  PL: 135.6 mg/dL
  RALB: 3 g/dL
  TBIL: 0.004 mg/dL
  TC: 63.4 mg/dL
  TG: 146.2 mg/dL
  TP: 5.8 g/dL
  gamma-GTP: 1.2 IU/L
[4]
  TERMINAL_BW: 356.1 g
  APTT: 23.7 s
  Bas: 0%
  Eos: 1%
  Fbg: 314.8 mg/dL
  Hb: 15.3 g/dL
  Ht: 44.8%
  Lym: 84.8%
  MCH: 19.6 pg
  MCHC: 34.3%
  MCV: 57.1 fL
  Mono: 1.4%
  Neu: 12%
  PT: 17.1 s
  Plat: 109.1 x10_4/uL
  RBC: 784 x10_4/ul
  Ret: 2.7%
  WBC: 122.9 x10_2/uL
  KIDNEY_L: 1.2 g
  KIDNEY_R: 1.2 g
  KIDNEY_TOTAL: 2.4 g
  LIVER: 14.3 g
  A/G: 1.1
  ALP: 1240.4 IU/L
  ALT: 44.8 IU/L
  AST: 71.6 IU/L
  BUN: 18.6 mg/dL
  CRE: 0.2 mg/dL
  Ca: 10.3 mg/dL
  Cl: 106.6 meq/L
  DBIL: 0 mg/dL
  GLC: 202.4 mg/dL
  IP: 5.5 mg/dL
  K: 3.7 meq/L
  LDH: 175.2 IU/L
  Na: 141.4 meq/L
  PL: 145.8 mg/dL
  RALB: 3.1 g/dL
  TBIL: 0.01 mg/dL
  TC: 66 mg/dL
  TG: 159.8 mg/dL
  TP: 6 g/dL
  gamma-GTP: 1 IU/L
[5]
  TERMINAL_BW: 215.2 g
  APTT: 20.9 s
  Bas: 0%
  Eos: 0.4%
  Fbg: 312.4 mg/dL
  Hb: 13 g/dL
  Ht: 38.6%
  Lym: 83.6%
  MCH: 22 pg
  MCHC: 33.6%
  MCV: 65.4 fL
  Mono: 1.8%
  Neu: 13%
  PT: 16.2 s
  Plat: 125.6 x10_4/uL
  RBC: 590 x10_4/ul
  Ret: 7.5%
  WBC: 81.3 x10_2/uL
  KIDNEY_L: 1 g
  KIDNEY_R: 1 g
  KIDNEY_TOTAL: 1.9 g
  LIVER: 10.5 g
  A/G: 1.3
  ALP: 1666 IU/L
  ALT: 45 IU/L
  AST: 73.2 IU/L
  BUN: 17.6 mg/dL
  CRE: 0.1 mg/dL
  Ca: 11.3 mg/dL
  Cl: 106.6 meq/L
  DBIL: 0 mg/dL
  GLC: 188.8 mg/dL
  IP: 6.7 mg/dL
  K: 4.4 meq/L
  LDH: 192.8 IU/L
  Na: 143.4 meq/L
  PL: 142.8 mg/dL
  RALB: 3.1 g/dL
  TBIL: 0.008 mg/dL
  TC: 73.8 mg/dL
  TG: 85 mg/dL
  TP: 5.6 g/dL
  gamma-GTP: 1 IU/L
[6]
  TERMINAL_BW: 233.9 g
  APTT: 21.4 s
  Bas: 0%
  Eos: 1%
  Fbg: 312.6 mg/dL
  Hb: 14 g/dL
  Ht: 40.2%
  Lym: 79%
  MCH: 21.4 pg
  MCHC: 34.9%
  MCV: 61.3 fL
  Mono: 2.2%
  Neu: 17%
  PT: 15.8 s
  Plat: 115.5 x10_4/uL
  RBC: 655.8 x10_4/ul
  Ret: 5.5%
  WBC: 121.2 x10_2/uL
  KIDNEY_L: 1 g
  KIDNEY_R: 1 g
  KIDNEY_TOTAL: 2 g
  LIVER: 10.6 g
  A/G: 1.2
  ALP: 1762.2 IU/L
  ALT: 44.2 IU/L
  AST: 71.2 IU/L
  BUN: 19.8 mg/dL
  CRE: 0.1 mg/dL
  Ca: 10.5 mg/dL
  Cl: 107.6 meq/L
  DBIL: 0 mg/dL
  GLC: 201 mg/dL
  IP: 7 mg/dL
  K: 4.1 meq/L
  LDH: 232 IU/L
  Na: 143.2 meq/L
  PL: 151.2 mg/dL
  RALB: 3.1 g/dL
  TBIL: 0.006 mg/dL
  TC: 74.8 mg/dL
  TG: 117.4 mg/dL
  TP: 5.7 g/dL
  gamma-GTP: 1.2 IU/L
[7]
  TERMINAL_BW: 269.8 g
  APTT: 22.5 s
  Bas: 0%
  Eos: 0.8%
  Fbg: 325.2 mg/dL
  Hb: 14.6 g/dL
  Ht: 41%
  Lym: 77.4%
  MCH: 21.4 pg
  MCHC: 35.7%
  MCV: 59.9 fL
  Mono: 1.8%
  Neu: 19%
  PT: 16.3 s
  Plat: 113.2 x10_4/uL
  RBC: 684.8 x10_4/ul
  Ret: 3.6%
  WBC: 82.1 x10_2/uL
  KIDNEY_L: 1.1 g
  KIDNEY_R: 1.1 g
  KIDNEY_TOTAL: 2.2 g
  LIVER: 11.4 g
  A/G: 1.1
  ALP: 1472 IU/L
  ALT: 34.6 IU/L
  AST: 61.4 IU/L
  BUN: 17.4 mg/dL
  CRE: 0.2 mg/dL
  Ca: 10.7 mg/dL
  Cl: 108 meq/L
  DBIL: 0 mg/dL
  GLC: 185.4 mg/dL
  IP: 6.1 mg/dL
  K: 4.2 meq/L
  LDH: 145 IU/L
  Na: 143.8 meq/L
  PL: 143.2 mg/dL
  RALB: 3.1 g/dL
  TBIL: 0.006 mg/dL
  TC: 74.2 mg/dL
  TG: 116.2 mg/dL
  TP: 5.9 g/dL
  gamma-GTP: 1 IU/L
[8]
  TERMINAL_BW: 343.6 g
  APTT: 24.6 s
  Bas: 0%
  Eos: 1%
  Fbg: 302.2 mg/dL
  Hb: 14.6 g/dL
  Ht: 42.3%
  Lym: 84.6%
  MCH: 19.4 pg
  MCHC: 34.4%
  MCV: 56.4 fL
  Mono: 1.6%
  Neu: 12%
  PT: 16.5 s
  Plat: 116.9 x10_4/uL
  RBC: 749.8 x10_4/ul
  Ret: 2.7%
  WBC: 116.8 x10_2/uL
  KIDNEY_L: 1.3 g
  KIDNEY_R: 1.3 g
  KIDNEY_TOTAL: 2.5 g
  LIVER: 14.1 g
  A/G: 1.1
  ALP: 1129.8 IU/L
  ALT: 46.2 IU/L
  AST: 71.2 IU/L
  BUN: 19.2 mg/dL
  CRE: 0.2 mg/dL
  Ca: 10.6 mg/dL
  Cl: 107.8 meq/L
  DBIL: 0.002 mg/dL
  GLC: 185 mg/dL
  IP: 5.6 mg/dL
  K: 3.9 meq/L
  LDH: 181 IU/L
  Na: 141.8 meq/L
  PL: 156.8 mg/dL
  RALB: 3.2 g/dL
  TBIL: 0.01 mg/dL
  TC: 79 mg/dL
  TG: 110.6 mg/dL
  TP: 6.1 g/dL
  gamma-GTP: 1.2 IU/L
